Source: ChEMBL document CHEMBL1148003 (Bioorg Med Chem, 2007)
Blank lines part the entries; values can stand above or below the molecule they belong to.

Experiments:
[1] = Inhibition of jack bean alpha-D-mannosidase; design: species or system Canavalia ensiformis
[2] = Inhibition of almond beta-D-glucosidase; design: species or system Prunus dulcis
[3] = Inhibition of Aspergillus wentii beta-D-mannosidase
[4] = biological target: T1, Glucoamylase, intracellular sporulation-specific (Saccharomyces cerevisiae S288c) (UniProt P08019); assay: Inhibition of yeast alpha-D-glucosidase at 1 mM
T1 sequence (whole entry): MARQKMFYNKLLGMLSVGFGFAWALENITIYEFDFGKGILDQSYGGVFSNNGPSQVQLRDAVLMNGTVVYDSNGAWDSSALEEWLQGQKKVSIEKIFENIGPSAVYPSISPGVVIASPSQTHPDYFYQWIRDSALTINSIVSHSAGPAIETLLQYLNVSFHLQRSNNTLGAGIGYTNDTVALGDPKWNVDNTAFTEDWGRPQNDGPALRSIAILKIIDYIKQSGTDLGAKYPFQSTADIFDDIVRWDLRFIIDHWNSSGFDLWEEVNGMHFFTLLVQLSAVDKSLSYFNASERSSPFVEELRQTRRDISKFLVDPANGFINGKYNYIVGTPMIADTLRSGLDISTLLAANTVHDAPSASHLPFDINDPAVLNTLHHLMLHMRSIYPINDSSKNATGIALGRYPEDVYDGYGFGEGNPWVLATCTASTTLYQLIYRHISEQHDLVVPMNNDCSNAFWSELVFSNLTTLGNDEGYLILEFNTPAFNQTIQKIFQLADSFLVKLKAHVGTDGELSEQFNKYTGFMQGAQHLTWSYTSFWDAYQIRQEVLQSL

[5] = Inhibition of green coffee bean alpha-D-galactosidase at 1 mM
[6] = test system: Escherichia coli; assay: Inhibition of Escherichia coli beta-D-galactosidase at 1 mM
[7] = test system: Cornu aspersum; assay: Inhibition of snail beta-D-mannosidase at 1 mM
[8] = Inhibition of snail beta-D-mannosidase; design: species or system Cornu aspersum
[9] = Inhibition of Escherichia coli beta-D-galactosidase
[10] = Inhibition of bovine kidney alpha-L-fucosidase; design: species or system Bos taurus
[11] = Inhibition of green coffee bean alpha-D-galactosidase
[12] = species: Bos taurus; assay: Inhibition of bovine kidney alpha-L-fucosidase at 1 mM

Ki [1]: 5 µM | IC50 [2]: 180 µM
Compound: O=S(=O)(O)C1NC[C@@H](O)[C@@H]1O (stereo not given in full)

Ki [3]: 42 µM | IC50 [1]: 3 µM | IC50 [2]: 2.2 µM
Compound: OC[C@H]1N=C[C@@H](O)[C@@H]1O [NECTRISINE]

Ki [3]: 900 µM | Ki [1]: 500 µM | Ki [2]: 0.9 µM
Compound: OC[C@H]1NC(O)[C@H](O)[C@@H](O)[C@@H]1O (stereo not given in full) [NOJIRIMYCIN]

inhibition [4]: 43% | inhibition [5]: 27% | inhibition [6]: 20%
Compound: O[C@@H]1CNC[C@H]1O

Ki [1]: 5 µM | IC50 [2]: 200 µM | inhibition [5]: 40% | inhibition [7]: 50% | IC50 [8]: 1000 µM
Compound: O[C@H]1[C@H](O)CN[C@H]1O

Ki [1]: 2 µM | Ki [2]: 0.3 µM | IC50 [10]: 1000 µM | Ki [11]: 0.2 µM
Compound: O[C@@H]1C=NC[C@@H]1O
Ki [9]: 0.2 µM

Ki [1]: 20 µM | IC50 [9]: 1000 µM | Ki [10]: 3 µM
Compound: O[C@@H]1CN=C[C@@H]1O

inhibition [12]: 23% | IC50 [2]: 2000 µM | inhibition [5]: 20% | inhibition [7]: 28%
Compound: O=S(=O)(O)C1NC[C@H](O)[C@H]1O (stereo not given in full)

IC50 [1]: 200 µM | IC50 [2]: 500 µM
Compound: OC[C@H]1NC[C@@H](O)[C@@H]1O
